According to ChEMBL document CHEMBL1132901, “Synthesis and structure-activity relationships of quaternary ammonium cephalosporins with 3-pyrazolylpyridinium derivatives” (2000):
Converted amounts (≈) assume the structure as drawn.

Test system: Escherichia coli
Assay: In vitro antimicrobial activity against Escherichia coli TEM
Type: functional
Settings: not given

Row | SMILES | MIC
1 | CO/N=C(/C(=O)N[C@@H]1C(=O)N2C(C(=O)[O-])=C(C[n+]3cccc(-c4cc(C)[nH]n4)c3)CS[C@H]12)c1csc(N)n1 | 0.098 µg/mL (≈ 0.177 µM)
2 | CO/N=C(/C(=O)N[C@@H]1C(=O)N2C(C(=O)[O-])=C(C[n+]3cccc(-c4cc(CO)nn4C)c3)CS[C@H]12)c1csc(N)n1 | 0.195 µg/mL (≈ 0.334 µM)

Test system: Pseudomonas aeruginosa
Assay: In vitro antimicrobial activity against Pseudomonas aeruginosa 1592 E
Type: functional
Settings: not given

Row | SMILES | MIC
3 | CO/N=C(/C(=O)N[C@@H]1C(=O)N2C(C(=O)[O-])=C(C[n+]3cccc(-c4cc(C)[nH]n4)c3)CS[C@H]12)c1csc(N)n1 | 3.12 µg/mL (≈ 5.63 µM)
4 | CO/N=C(/C(=O)N[C@@H]1C(=O)N2C(C(=O)[O-])=C(C[n+]3cccc(-c4cc(CO)nn4C)c3)CS[C@H]12)c1csc(N)n1 | 12.5 µg/mL (≈ 21.4 µM)

Test system: Enterobacter cloacae
Assay: In vitro antimicrobial activity against Enterobacter cloacae P99
Type: functional
Settings: not given

Row | SMILES | MIC
5 | CO/N=C(/C(=O)N[C@@H]1C(=O)N2C(C(=O)[O-])=C(C[n+]3cccc(-c4cc(C)[nH]n4)c3)CS[C@H]12)c1csc(N)n1 | 50 µg/mL (≈ 90.2 µM)
6 | CO/N=C(/C(=O)N[C@@H]1C(=O)N2C(C(=O)[O-])=C(C[n+]3cccc(-c4cc(CO)nn4C)c3)CS[C@H]12)c1csc(N)n1 | > 25 µg/mL

Test system: Staphylococcus aureus
Assay: In vitro antimicrobial activity against Methicillin resistant Staphylococcus aureus (MRSA)
Type: functional
Settings: not given

Row | SMILES | MIC
7 | CO/N=C(/C(=O)N[C@@H]1C(=O)N2C(C(=O)[O-])=C(C[n+]3cccc(-c4cc(C)[nH]n4)c3)CS[C@H]12)c1csc(N)n1 | 25 µg/mL (≈ 45.1 µM)

Test system: Pseudomonas aeruginosa
Assay: In vitro antimicrobial activity against Pseudomonas aeruginosa 9027
Type: functional
Settings: not given

Row | SMILES | MIC
8 | CO/N=C(/C(=O)N[C@@H]1C(=O)N2C(C(=O)[O-])=C(C[n+]3cccc(-c4cc(C)[nH]n4)c3)CS[C@H]12)c1csc(N)n1 | 6.25 µg/mL (≈ 11.3 µM)
9 | CO/N=C(/C(=O)N[C@@H]1C(=O)N2C(C(=O)[O-])=C(C[n+]3cccc(-c4cc(CO)nn4C)c3)CS[C@H]12)c1csc(N)n1 | 25 µg/mL (≈ 42.8 µM)

Test system: Pseudomonas aeruginosa
Assay: In vitro antimicrobial activity against Pseudomonas aeruginosa 1771
Type: functional
Settings: not given

Row | SMILES | MIC
10 | CO/N=C(/C(=O)N[C@@H]1C(=O)N2C(C(=O)[O-])=C(C[n+]3cccc(-c4cc(C)[nH]n4)c3)CS[C@H]12)c1csc(N)n1 | 1.56 µg/mL (≈ 2.82 µM)
11 | CO/N=C(/C(=O)N[C@@H]1C(=O)N2C(C(=O)[O-])=C(C[n+]3cccc(-c4cc(CO)nn4C)c3)CS[C@H]12)c1csc(N)n1 | 3.12 µg/mL (≈ 5.35 µM)

Test system: Staphylococcus aureus
Assay: In vitro antimicrobial activity against Staphylococcus aureus 503
Type: functional
Settings: not given

Row | SMILES | MIC
12 | CO/N=C(/C(=O)N[C@@H]1C(=O)N2C(C(=O)[O-])=C(C[n+]3cccc(-c4cc(C)[nH]n4)c3)CS[C@H]12)c1csc(N)n1 | 0.195 µg/mL (≈ 0.352 µM)
13 | CO/N=C(/C(=O)N[C@@H]1C(=O)N2C(C(=O)[O-])=C(C[n+]3cccc(-c4cc(CO)nn4C)c3)CS[C@H]12)c1csc(N)n1 | 0.781 µg/mL (≈ 1.34 µM)

Test system: Pseudomonas aeruginosa
Assay: In vitro antimicrobial activity against Pseudomonas aeruginosa 1771 M
Type: functional
Settings: not given

Row | SMILES | MIC
14 | CO/N=C(/C(=O)N[C@@H]1C(=O)N2C(C(=O)[O-])=C(C[n+]3cccc(-c4cc(C)[nH]n4)c3)CS[C@H]12)c1csc(N)n1 | 0.781 µg/mL (≈ 1.41 µM)
15 | CO/N=C(/C(=O)N[C@@H]1C(=O)N2C(C(=O)[O-])=C(C[n+]3cccc(-c4cc(CO)nn4C)c3)CS[C@H]12)c1csc(N)n1 | 0.391 µg/mL (≈ 0.669 µM)

Test system: Streptococcus pyogenes
Assay: In vitro antimicrobial activity against Streptococcus pyogenes 77A
Type: functional
Settings: not given

Row | SMILES | MIC
16 | CO/N=C(/C(=O)N[C@@H]1C(=O)N2C(C(=O)[O-])=C(C[n+]3cccc(-c4cc(C)[nH]n4)c3)CS[C@H]12)c1csc(N)n1 | 0.007 µg/mL (≈ 0.0126 µM)
17 | CO/N=C(/C(=O)N[C@@H]1C(=O)N2C(C(=O)[O-])=C(C[n+]3cccc(-c4cc(CO)nn4C)c3)CS[C@H]12)c1csc(N)n1 | 0.025 µg/mL (≈ 0.0428 µM)

Test system: Staphylococcus aureus
Assay: In vitro antimicrobial activity against Staphylococcus aureus 285
Type: functional
Settings: not given

Row | SMILES | MIC
18 | CO/N=C(/C(=O)N[C@@H]1C(=O)N2C(C(=O)[O-])=C(C[n+]3cccc(-c4cc(C)[nH]n4)c3)CS[C@H]12)c1csc(N)n1 | 0.781 µg/mL (≈ 1.41 µM)
19 | CO/N=C(/C(=O)N[C@@H]1C(=O)N2C(C(=O)[O-])=C(C[n+]3cccc(-c4cc(CO)nn4C)c3)CS[C@H]12)c1csc(N)n1 | 3.12 µg/mL (≈ 5.35 µM)

Test system: Streptococcus pyogenes
Assay: In vitro antimicrobial activity against Streptococcus pyogenes A 308
Type: functional
Settings: not given

Row | SMILES | MIC
20 | CO/N=C(/C(=O)N[C@@H]1C(=O)N2C(C(=O)[O-])=C(C[n+]3cccc(-c4cc(C)[nH]n4)c3)CS[C@H]12)c1csc(N)n1 | 0.007 µg/mL (≈ 0.0126 µM)
21 | CO/N=C(/C(=O)N[C@@H]1C(=O)N2C(C(=O)[O-])=C(C[n+]3cccc(-c4cc(CO)nn4C)c3)CS[C@H]12)c1csc(N)n1 | 0.049 µg/mL (≈ 0.0838 µM)

Test system: Escherichia coli
Assay: In vitro antimicrobial activity against Escherichia coli DC 0
Type: functional
Settings: not given

Row | SMILES | MIC
22 | CO/N=C(/C(=O)N[C@@H]1C(=O)N2C(C(=O)[O-])=C(C[n+]3cccc(-c4cc(C)[nH]n4)c3)CS[C@H]12)c1csc(N)n1 | 0.025 µg/mL (≈ 0.0451 µM)
23 | CO/N=C(/C(=O)N[C@@H]1C(=O)N2C(C(=O)[O-])=C(C[n+]3cccc(-c4cc(CO)nn4C)c3)CS[C@H]12)c1csc(N)n1 | 0.049 µg/mL (≈ 0.0838 µM)

Test system: Escherichia coli
Assay: In vitro antimicrobial activity against Escherichia coli 1507E
Type: functional
Settings: not given

Row | SMILES | MIC
24 | CO/N=C(/C(=O)N[C@@H]1C(=O)N2C(C(=O)[O-])=C(C[n+]3cccc(-c4cc(C)[nH]n4)c3)CS[C@H]12)c1csc(N)n1 | 0.098 µg/mL (≈ 0.177 µM)
25 | CO/N=C(/C(=O)N[C@@H]1C(=O)N2C(C(=O)[O-])=C(C[n+]3cccc(-c4cc(CO)nn4C)c3)CS[C@H]12)c1csc(N)n1 | 0.098 µg/mL (≈ 0.168 µM)

Test system: Escherichia coli
Assay: In vitro antimicrobial activity against Escherichia coli DC 2
Type: functional
Settings: not given

Row | SMILES | MIC
26 | CO/N=C(/C(=O)N[C@@H]1C(=O)N2C(C(=O)[O-])=C(C[n+]3cccc(-c4cc(C)[nH]n4)c3)CS[C@H]12)c1csc(N)n1 | 0.013 µg/mL (≈ 0.0234 µM)
27 | CO/N=C(/C(=O)N[C@@H]1C(=O)N2C(C(=O)[O-])=C(C[n+]3cccc(-c4cc(CO)nn4C)c3)CS[C@H]12)c1csc(N)n1 | 0.049 µg/mL (≈ 0.0838 µM)

Test system: Escherichia coli
Assay: In vitro antimicrobial activity against Escherichia coli 055
Type: functional
Settings: not given

Row | SMILES | MIC
28 | CO/N=C(/C(=O)N[C@@H]1C(=O)N2C(C(=O)[O-])=C(C[n+]3cccc(-c4cc(C)[nH]n4)c3)CS[C@H]12)c1csc(N)n1 | 0.025 µg/mL (≈ 0.0451 µM)
29 | CO/N=C(/C(=O)N[C@@H]1C(=O)N2C(C(=O)[O-])=C(C[n+]3cccc(-c4cc(CO)nn4C)c3)CS[C@H]12)c1csc(N)n1 | 0.049 µg/mL (≈ 0.0838 µM)

Test system: Klebsiella aerogenes
Assay: In vitro antimicrobial activity against Klebsiella aerogenes 1522 E
Type: functional
Settings: not given

Row | SMILES | MIC
30 | CO/N=C(/C(=O)N[C@@H]1C(=O)N2C(C(=O)[O-])=C(C[n+]3cccc(-c4cc(C)[nH]n4)c3)CS[C@H]12)c1csc(N)n1 | 0.049 µg/mL (≈ 0.0883 µM)
31 | CO/N=C(/C(=O)N[C@@H]1C(=O)N2C(C(=O)[O-])=C(C[n+]3cccc(-c4cc(CO)nn4C)c3)CS[C@H]12)c1csc(N)n1 | 0.098 µg/mL (≈ 0.168 µM)

Test system: Streptococcus pyogenes
Assay: In vitro antimicrobial activity against Streptococcus pyogenes SG 511
Type: functional
Settings: not given

Row | SMILES | MIC
32 | CO/N=C(/C(=O)N[C@@H]1C(=O)N2C(C(=O)[O-])=C(C[n+]3cccc(-c4cc(C)[nH]n4)c3)CS[C@H]12)c1csc(N)n1 | 0.781 µg/mL (≈ 1.41 µM)
33 | CO/N=C(/C(=O)N[C@@H]1C(=O)N2C(C(=O)[O-])=C(C[n+]3cccc(-c4cc(CO)nn4C)c3)CS[C@H]12)c1csc(N)n1 | 3.12 µg/mL (≈ 5.35 µM)

Test system: Salmonella typhimurium
Assay: In vitro antimicrobial activity against Salmonella Typhimurium
Type: functional, Salmonella enterica subsp. enterica serovar Typhimurium
Settings: Salmonella enterica

Row | SMILES | MIC
34 | CO/N=C(/C(=O)N[C@@H]1C(=O)N2C(C(=O)[O-])=C(C[n+]3cccc(-c4cc(C)[nH]n4)c3)CS[C@H]12)c1csc(N)n1 | 0.098 µg/mL (≈ 0.177 µM)
35 | CO/N=C(/C(=O)N[C@@H]1C(=O)N2C(C(=O)[O-])=C(C[n+]3cccc(-c4cc(CO)nn4C)c3)CS[C@H]12)c1csc(N)n1 | 0.195 µg/mL (≈ 0.334 µM)

Test system: Enterococcus faecium
Assay: In vitro antimicrobial activity against Streptococcus faecium MD 8b
Type: functional
Settings: not given

Row | SMILES | MIC
36 | CO/N=C(/C(=O)N[C@@H]1C(=O)N2C(C(=O)[O-])=C(C[n+]3cccc(-c4cc(C)[nH]n4)c3)CS[C@H]12)c1csc(N)n1 | 3.12 µg/mL (≈ 5.63 µM)
37 | CO/N=C(/C(=O)N[C@@H]1C(=O)N2C(C(=O)[O-])=C(C[n+]3cccc(-c4cc(CO)nn4C)c3)CS[C@H]12)c1csc(N)n1 | 6.25 µg/mL (≈ 10.7 µM)

Test system: Klebsiella oxytoca
Assay: In vitro antimicrobial activity against Klebsiella oxytoca 1082
Type: functional
Settings: not given

Row | SMILES | MIC
38 | CO/N=C(/C(=O)N[C@@H]1C(=O)N2C(C(=O)[O-])=C(C[n+]3cccc(-c4cc(C)[nH]n4)c3)CS[C@H]12)c1csc(N)n1 | 1.56 µg/mL (≈ 2.82 µM)
39 | CO/N=C(/C(=O)N[C@@H]1C(=O)N2C(C(=O)[O-])=C(C[n+]3cccc(-c4cc(CO)nn4C)c3)CS[C@H]12)c1csc(N)n1 | 6.25 µg/mL (≈ 10.7 µM)

Test system: Enterobacter cloacae
Assay: In vitro antimicrobial activity against Enterobacter 1321 E
Type: functional
Settings: not given

Row | SMILES | MIC
40 | CO/N=C(/C(=O)N[C@@H]1C(=O)N2C(C(=O)[O-])=C(C[n+]3cccc(-c4cc(C)[nH]n4)c3)CS[C@H]12)c1csc(N)n1 | 0.013 µg/mL (≈ 0.0234 µM)
41 | CO/N=C(/C(=O)N[C@@H]1C(=O)N2C(C(=O)[O-])=C(C[n+]3cccc(-c4cc(CO)nn4C)c3)CS[C@H]12)c1csc(N)n1 | 0.049 µg/mL (≈ 0.0838 µM)
